From patent publication US20110059910A1, “Novel aromatic fluoroglycoside derivatives, pharmaceuticals comprising said compounds and the use thereof” (SANOFI-AVENTIS, priority 2008, published 2011)

Target: T1, human sodium-dependent glucose transporter 2 (SGLT2, SLC5A2) (Homo sapiens, UniProt P31639)
T1 construct: Bases 21 to 2039 correspond to the complete coding region of human SGLT2; expressed in transfected cells
T1 sequence (P31639 1-672): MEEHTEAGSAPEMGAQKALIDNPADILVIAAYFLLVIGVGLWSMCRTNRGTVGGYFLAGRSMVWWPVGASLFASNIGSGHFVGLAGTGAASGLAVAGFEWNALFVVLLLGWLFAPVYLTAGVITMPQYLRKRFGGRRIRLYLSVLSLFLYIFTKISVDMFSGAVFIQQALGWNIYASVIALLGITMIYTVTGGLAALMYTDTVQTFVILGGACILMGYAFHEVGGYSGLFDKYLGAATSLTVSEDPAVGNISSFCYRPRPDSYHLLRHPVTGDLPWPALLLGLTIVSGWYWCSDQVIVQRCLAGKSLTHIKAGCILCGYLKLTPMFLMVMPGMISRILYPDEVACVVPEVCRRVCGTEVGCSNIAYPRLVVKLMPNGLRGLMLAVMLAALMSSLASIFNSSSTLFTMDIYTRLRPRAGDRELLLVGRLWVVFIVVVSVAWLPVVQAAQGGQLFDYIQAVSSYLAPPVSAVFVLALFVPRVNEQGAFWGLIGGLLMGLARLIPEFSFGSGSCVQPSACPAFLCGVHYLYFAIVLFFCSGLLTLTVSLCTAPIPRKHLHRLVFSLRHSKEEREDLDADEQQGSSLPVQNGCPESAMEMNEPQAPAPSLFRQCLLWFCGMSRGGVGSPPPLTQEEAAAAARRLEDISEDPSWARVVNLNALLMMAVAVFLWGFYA
Assay: Inhibition of the transport activity of human SGLT2 in vitro (α-MDG uptake in CHO-TRex-hSGLT2 cells)
Format: cell-based
Details: 50 μM α-MDG, 120 min at 37° C.
Excerpt: Inhibition of the Transport Activity of the Human Sodium-Dependent Glucose Transporter 2 (SGLT2, SLC5A2) In Vitro
1. Cloning of an Expression Vector for Human SGLT2
The cDNA for human SGLT2 was introduced into the pcDNA4/TO vector (Invitrogen) by means of standard methods of molecular biology as described in Sambrook et al. (Molecular Cloning, A Laboratory Manual, Second Edition). […] Bases 21 to 2039 correspond to the complete coding region of human SGLT2.
2. Production of a Recombinant Cell Line with Inducible Expression of Human SGLT2
The expression vector for human SGLT2 was introduced into CHO-TREx cells (Invitrogen) by means of FuGene6 lipofection (Roche). To select single cell clones, 600 μg/ml of Zeocin (Invitrogen) was added to the cell culture medium (nutrient mixture F-12 (Ham), (Invitrogen) supplemented with 10% fetal calf serum (FBS Gold, PAA), 10 μg/ml Blasticidin S(CN Biosciences), 100 units/ml penicillin, 100 units/ml streptomycin). The functionality of the single cell clones resulting from the selection was tested via their uptake activity for radiolabeled methyl-α-D-glucopyranoside. That cell clone with the highest uptake activity for methyl-α-D-glucopyranoside, referred to hereinafter as CHO-TRex-hSGLT2, was selected for the further experiments and cultured further in the presence of 600 μg/ml Zeocin.
3. Measurement of the Inhibiting Action of Test Substances on the Uptake of methyl-α-D-glucopyranoside (α-MDG)
CHO-TRex-hSGLT2 cells were seeded in cell culture medium in a concentration of 50 000 cells per well in Cytostar-T scintillating 96-well plates (Amersham Biosciences) and cultivated for 24 h. The expression of the recombinant human SGLT2 was induced by adding 1 μg/ml tetrazykline for a further 24 h. For α-MDG uptake experiments, the cells were washed with PBS and then starved at 37° C. in starvation medium (PBS supplemented with 10% fetal calf serum) for 1 hour. After a further washing step with transport assay buffer (140 mM sodium chloride, 2 mm potassium chloride, 1 mm magnesium chloride, 1 mm calcium chloride, 10 mm HEPES/Tris, pH 7.5), the cells were incubated at room temperature either in the absence or presence of test substances of different concentration for 15 min. The test substances were diluted correspondingly in transport assay buffer proceeding from a 10 mm stock solution in dimethyl sulfoxide (40 μl/well). The assay was subsequently started by adding 10 μl/well of a mixture of radiolabeled methyl-α-D-[U-^14C]glucopyranoside (Amersham) and unlabeled methyl-α-D-glucopyranoside (Acros). The final concentration of methyl-α-D-glucopyranoside in the assay was 50 μM. After an incubation time of 120 min at 37° C., the reaction was stopped by adding 50 μl/well of 10 mM methyl-α-D-glucopyranoside in transport assay buffer (4° C.), and the radioactivity taken up into the cells was determined in a MicroBeta Scintillation Microplate Reader (Wallac).
The half-maximum inhibiting action of the test substances (IC50 value) was determined as follows: • 1. Determination of the value for 0% inhibition. This is the measurement in the absence of substance, measured in sodium-containing transport assay buffer. • 2. Determination of the value for 100% inhibition. This is the measurement in the absence of substance, measured in sodium-free transport assay buffer (140 mM choline chloride, 2 mM potassium chloride, 1 mM magnesium chloride, 1 mM calcium chloride, 10 mM HEPES/Tris, pH7.5). • 3. Calculation of the percentage inhibition values of those measurements which were carried out in the presence of different concentrations of test substance. From this, it was then possible to determine that concentration of the test substance which reduces the uptake of the methyl-α-D-glucopyranoside by 50% (IC50 value).

| Compound | IC50 [nM] |
| --- | --- |
| COc1ccc(Cc2cc(C3OC(CO)C(F)C(O)C3O)ccc2OC)cc1 (centres unmarked) [Example 13] | 31 |
| CCc1ccc(Cc2cc(C3OC(CO)C(F)C(O)C3O)ccc2Cl)cc1 (centres unmarked) [Example 3] | 8 |
| COc1ccc(Cc2cc([C@@H]3O[C@H](CO)[C@@H](F)[C@H](O)[C@H]3O)ccc2OC(F)(F)F)cc1 [Example 40] | 412 |
| COc1ccc(Cc2cc(C3OC(CO)C(F)C(O)C3O)ccc2Cl)nc1 (centres unmarked) [Example 36] | 304 |
| COc1ccc(Cc2cc([C@@H]3O[C@H](CO)[C@@H](F)[C@H](O)[C@H]3O)ccc2C(F)(F)F)cc1 [Example 48] | 74 |
| COc1ccc(Cc2cc(C3OC(CO)C(F)(F)C(O)C3O)ccc2Cl)cc1 (centres unmarked) [Example 22] | 9 |
| CCc1ccc(Cc2cc(C3OC(CO)C(F)C(O)C3O)ccc2Cl)s1 (centres unmarked) [Example 6] | 12 |
| OCC1OC(c2ccc(Cl)c(Cc3cc4ccccc4s3)c2)C(O)C(O)C1F (centres unmarked) [Example 7] | 15 |
| CCOC(=O)OCC1OC(c2ccc(Cl)c(Cc3ccc(OCC)cc3)c2)C(O)C(O)C1(F)F (centres unmarked) [Example 18] | 897 |
| COc1ccc(Cc2cc([C@@H]3O[C@H](CO)C(F)(F)[C@H](O)[C@H]3O)ccc2C(F)(F)F)cc1 [Example 50] | 154 |
| CCOC(=O)OC[C@H]1O[C@@H](c2ccc(OC(F)(F)F)c(Cc3ccc(OC)cc3)c2)[C@H](O)[C@@H](O)[C@@H]1F [Example 39] | 19800 |
| OC[C@H]1O[C@@H](c2ccc(Cl)c(Cc3ccc(O)cc3)c2)[C@H](O)[C@@H](O)C1(F)F [Example 30] | 15 |
| CCOc1ccc(Cc2cc(C3OC(CO)C(F)(F)C(O)C3O)ccc2Cl)cc1 (centres unmarked) [Example 2] | 18 |
| COc1ccc(Cc2cc(C3OC(CO)C(F)(F)C(O)C3O)ccc2OC)cc1 (centres unmarked) [Example 15] | 80 |
| CCOC(=O)OCC1OC(c2ccc(OC)c(Cc3ccc(OC)cc3)c2)C(O)C(O)C1F (centres unmarked) [Example 12] | 2700 |
| COc1ccc(Cc2cc(C3OC(CO)C(F)C(O)C3O)ccc2F)cc1 (centres unmarked) [Example 9] | 32 |
| OC[C@H]1O[C@@H](c2ccc(Cl)c(Cc3ccc(Cl)cc3)c2)[C@H](O)[C@@H](O)[C@@H]1F [Example 44] | 24 |
| CCOC(=O)OCC1OC(c2ccc(Cl)c(Cc3ccc(OC(F)(F)F)cc3)c2)C(O)C(O)C1(F)F (centres unmarked) [Example 26] | > 10000 |
| COc1ccc(Cc2cc([C@@H]3O[C@H](CO)C(F)(F)[C@H](O)[C@H]3O)ccc2OC(F)(F)F)cc1 [Example 42] | 982 |
| CCc1ccc(Cc2cc(C3OC(CO)C(F)(F)C(O)C3O)ccc2Cl)cc1 (centres unmarked) [Example 1] | 12 |
| CCOC(=O)OCC1OC(c2ccc(Cl)c(Cc3ccc(OC)cn3)c2)C(O)C(O)C1F (centres unmarked) [Example 35] | 12600 |

| Compound | IC50 [nM] |
| --- | --- |
| OC[C@H]1O[C@@H](c2ccc(Cl)c(Cc3ccc(Cl)cc3)c2)[C@H](O)[C@@H](O)C1(F)F [Example 46] | 75 |
| CCOC(=O)OC[C@H]1O[C@@H](c2ccc(OC(F)(F)F)c(Cc3ccc(OC)cc3)c2)[C@H](O)[C@@H](O)C1(F)F [Example 41] | 12800 |
| COc1ccc(Cc2cc(C3OC(CO)C(F)(F)C(O)C3O)ccc2F)cc1 (centres unmarked) [Example 11] | 54 |
| COc1ccc(Cc2cc(C3OC(CO)C(F)(F)C(O)C3O)ccc2Cl)nc1 (centres unmarked) [Example 38] | 393 |
| CCOC(=O)OCC1OC(c2ccc(Cl)c(Cc3ccc(OCC)cc3)c2)C(O)C(O)C1F (centres unmarked) [Example 16] | 2700 |
| Cc1ccc(C2OC(CO)C(F)(F)C(O)C2O)cc1Cc1ccc(O)cc1 (centres unmarked) [Example 33] | 38 |
| CCOC(=O)OCC1OC(c2ccc(Cl)c(Cc3ccc(OC)cc3)c2)C(O)C(O)C1(F)F (centres unmarked) [Example 21] | 339 |
| CCOC(=O)OC[C@H]1O[C@@H](c2ccc(C(F)(F)F)c(Cc3ccc(OC)cc3)c2)[C@H](O)[C@@H](O)C1(F)F [Example 49] | 8000 |
| CCOc1ccc(Cc2cc(C3OC(CO)C(F)C(O)C3O)ccc2Cl)cc1 (centres unmarked) [Example 17] | 10 |
| CCOC(=O)OCC1OC(c2ccc(F)c(Cc3ccc(OC)cc3)c2)C(O)C(O)C1(F)F (centres unmarked) [Example 10] | 1400 |
| CCOC(=O)OCC1OC(c2ccc(F)c(Cc3ccc(OC)cc3)c2)C(O)C(O)C1F (centres unmarked) [Example 8] | 1400 |
| COc1ccc(Cc2cccc(C3OC(CO)C(F)C(O)C3O)c2)cc1 (centres unmarked) [Example 5] | 5 |
| CCOC(=O)OCC1OC(c2ccc(Cl)c(Cc3ccc(OC)cn3)c2)C(O)C(O)C1(F)F (centres unmarked) [Example 37] | 11200 |
| COc1ccc(Cc2cc(C3OC(CO)C(F)(F)C(O)C3O)ccc2C)cc1 (centres unmarked) [Example 34] | 27 |
| CCOC(=O)OCC1OC(c2ccc(Cl)c(Cc3ccc(OC(F)(F)F)cc3)c2)C(O)C(O)C1F (centres unmarked) [Example 24] | 976 |
| OCC1OC(c2ccc(Cl)c(Cc3ccc(OC(F)(F)F)cc3)c2)C(O)C(O)C1(F)F (centres unmarked) [Example 27] | 199 |
| CC(C)Oc1ccc(Cc2cc([C@@H]3O[C@H](CO)C(F)(F)[C@H](O)[C@H]3O)ccc2Cl)cc1 [Example 31] | 42 |
| CCc1ccc(Cc2cc(C3OC(CO)C(F)C(O)C3O)ccc2C)cc1 (centres unmarked) [Example 61] | 10 |
| OCC1OC(c2ccc(Cl)c(Cc3ccc(OC(F)(F)F)cc3)c2)C(O)C(O)C1F (centres unmarked) [Example 25] | 41 |
| COc1ccc(Cc2cc(C3OC(CO)C(F)C(O)C3O)ccc2Br)cc1 (centres unmarked) [Example 56] | 9.4 |
